15 compounds from ChEMBL document CHEMBL1147055, “Noxious compounds activate TRPA1 ion channels through covalent modification of cysteines” (Nature, 2007) can be followed below.

Activity calls are given as the source filed them. The calls are words filed in the database; no cut-off is given here.

The target of assay [1] is Transient receptor potential cation channel subfamily A member 1 (Mus musculus) (UniProt Q8BLA8). Briefly: Activation of mouse TRPA1 expressed in HEK293T cells at 100 uM assessed as activation of cation conductance by electrophysiology. The class given is cell-based. The following applies: HEK-293T.
Sequence of Transient receptor potential cation channel subfamily A member 1 (Mus musculus) (Q8BLA8 whole entry): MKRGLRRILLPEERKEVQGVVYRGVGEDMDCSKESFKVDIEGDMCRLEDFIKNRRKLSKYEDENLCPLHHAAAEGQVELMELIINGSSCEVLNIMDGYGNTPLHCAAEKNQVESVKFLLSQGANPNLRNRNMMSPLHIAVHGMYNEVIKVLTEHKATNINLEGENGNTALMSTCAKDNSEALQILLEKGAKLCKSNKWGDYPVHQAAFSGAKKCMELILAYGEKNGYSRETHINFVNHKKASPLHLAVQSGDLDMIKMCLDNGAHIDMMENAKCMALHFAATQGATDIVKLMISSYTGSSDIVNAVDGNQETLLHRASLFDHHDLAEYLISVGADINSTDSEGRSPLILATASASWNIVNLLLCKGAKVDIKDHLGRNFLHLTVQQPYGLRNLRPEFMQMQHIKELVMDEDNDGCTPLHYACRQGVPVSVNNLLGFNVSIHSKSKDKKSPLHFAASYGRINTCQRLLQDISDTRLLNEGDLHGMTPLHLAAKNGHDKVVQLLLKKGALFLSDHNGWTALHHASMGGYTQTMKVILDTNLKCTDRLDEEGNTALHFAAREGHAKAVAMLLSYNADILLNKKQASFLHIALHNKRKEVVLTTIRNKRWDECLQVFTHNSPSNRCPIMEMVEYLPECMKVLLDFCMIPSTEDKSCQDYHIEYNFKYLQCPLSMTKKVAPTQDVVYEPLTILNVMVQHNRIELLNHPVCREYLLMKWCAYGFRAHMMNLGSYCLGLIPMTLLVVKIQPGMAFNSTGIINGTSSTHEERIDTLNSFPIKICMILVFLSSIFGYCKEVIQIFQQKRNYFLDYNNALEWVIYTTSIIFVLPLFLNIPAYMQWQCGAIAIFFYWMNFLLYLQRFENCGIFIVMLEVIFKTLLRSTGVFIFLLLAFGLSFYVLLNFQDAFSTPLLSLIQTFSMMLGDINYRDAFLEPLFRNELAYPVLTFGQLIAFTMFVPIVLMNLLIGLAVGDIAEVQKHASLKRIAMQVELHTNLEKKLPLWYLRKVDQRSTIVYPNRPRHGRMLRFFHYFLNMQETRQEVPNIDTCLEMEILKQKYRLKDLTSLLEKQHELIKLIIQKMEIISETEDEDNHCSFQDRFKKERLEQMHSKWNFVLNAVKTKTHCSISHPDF
Assay [2] addresses Transient receptor potential cation channel subfamily A member 1 (Homo sapiens, UniProt O75762). Briefly: Activation of TRPA1.
Assay [3] addresses Transient receptor potential cation channel subfamily A member 1 (Mus musculus) (UniProt Q8BLA8). Briefly: Binding affinity to mouse TRPA1 expressed in HEK293T cells at 100 uM assessed as covalent protein modification. The class given is cell-based. As to conditions: HEK-293T.
Assay [4] shares this target. The assay can be described thus: Activation of mouse TRPA1 expressed in HEK293T cells at 30 uM assessed as activation of cation conductance by electrophysiology. Format: cell-based. The following applies: HEK-293T.
Assay [5] shares this target. The assay can be described thus: Activation of mouse TRPA1 expressed in CHO cells assessed as increase in intracellular calcium level. The class given is cell-based. A general note: A change in cytosolic calcium serves as a functional read-out for many receptors and channels.
For assay [6], the system named is Transient receptor potential cation channel subfamily A member 1 (Mus musculus), Q8BLA8 [C622S]. The assay can be described thus: Activation of mouse TRPA1 C622S mutant expressed in CHO cells at 100 uM by calcium imaging FLIPR assay. Format: cell-based.
Sequence of Transient receptor potential cation channel subfamily A member 1 (Mus musculus), Q8BLA8 [C622S] (Q8BLA8 whole entry C622S): as the sequence (Q8BLA8 whole entry) above, with C622S counted along it
Assay [7] deals with Transient receptor potential cation channel subfamily A member 1 (Mus musculus), Q8BLA8 [C415S]. The assay can be described thus: Activation of mouse TRPA1 C415S mutant expressed in CHO cells at 100 uM by calcium imaging FLIPR assay. The class given is cell-based.
Sequence of Transient receptor potential cation channel subfamily A member 1 (Mus musculus), Q8BLA8 [C415S] (Q8BLA8 whole entry C415S): as the sequence (Q8BLA8 whole entry) above, with C415S counted along it
Assay [8] has as its system Transient receptor potential cation channel subfamily A member 1 (Mus musculus), Q8BLA8 [C422S]. The assay can be described thus: Activation of mouse TRPA1 C422S mutant expressed in CHO cells at 100 uM by calcium imaging FLIPR assay. The class given is cell-based.
Assay [9] has as its target Transient receptor potential cation channel subfamily A member 1 (Mus musculus) (UniProt Q8BLA8). Briefly: Activation of mouse TRPA1 expressed in HEK293T cells at 50 uM assessed as activation of cation conductance by electrophysiology. The class given is cell-based. The following applies: HEK-293T.
Assay [10] has the same target. The assay can be described thus: Activation of mouse TRPA1 expressed in HEK293T cells at 50 uM in presence of dithiothreitol by electrophysiology. As to conditions: HEK-293T. The class given is cell-based.
For assay [11] the target is unchanged. Briefly: Reversal of activation of mouse TRPA1 expressed in HEK293T cells at 400 uM in presence of dithiothreitol by electrophysiology. As to conditions: HEK-293T. Format: cell-based.
Assay [12] has the same target. The assay can be described thus: Activation of mouse TRPA1 expressed in CHO cells at 100 uM by calcium imaging FLIPR assay. The class given is cell-based.

Sequence of Transient receptor potential cation channel subfamily A member 1 (O75762 whole entry): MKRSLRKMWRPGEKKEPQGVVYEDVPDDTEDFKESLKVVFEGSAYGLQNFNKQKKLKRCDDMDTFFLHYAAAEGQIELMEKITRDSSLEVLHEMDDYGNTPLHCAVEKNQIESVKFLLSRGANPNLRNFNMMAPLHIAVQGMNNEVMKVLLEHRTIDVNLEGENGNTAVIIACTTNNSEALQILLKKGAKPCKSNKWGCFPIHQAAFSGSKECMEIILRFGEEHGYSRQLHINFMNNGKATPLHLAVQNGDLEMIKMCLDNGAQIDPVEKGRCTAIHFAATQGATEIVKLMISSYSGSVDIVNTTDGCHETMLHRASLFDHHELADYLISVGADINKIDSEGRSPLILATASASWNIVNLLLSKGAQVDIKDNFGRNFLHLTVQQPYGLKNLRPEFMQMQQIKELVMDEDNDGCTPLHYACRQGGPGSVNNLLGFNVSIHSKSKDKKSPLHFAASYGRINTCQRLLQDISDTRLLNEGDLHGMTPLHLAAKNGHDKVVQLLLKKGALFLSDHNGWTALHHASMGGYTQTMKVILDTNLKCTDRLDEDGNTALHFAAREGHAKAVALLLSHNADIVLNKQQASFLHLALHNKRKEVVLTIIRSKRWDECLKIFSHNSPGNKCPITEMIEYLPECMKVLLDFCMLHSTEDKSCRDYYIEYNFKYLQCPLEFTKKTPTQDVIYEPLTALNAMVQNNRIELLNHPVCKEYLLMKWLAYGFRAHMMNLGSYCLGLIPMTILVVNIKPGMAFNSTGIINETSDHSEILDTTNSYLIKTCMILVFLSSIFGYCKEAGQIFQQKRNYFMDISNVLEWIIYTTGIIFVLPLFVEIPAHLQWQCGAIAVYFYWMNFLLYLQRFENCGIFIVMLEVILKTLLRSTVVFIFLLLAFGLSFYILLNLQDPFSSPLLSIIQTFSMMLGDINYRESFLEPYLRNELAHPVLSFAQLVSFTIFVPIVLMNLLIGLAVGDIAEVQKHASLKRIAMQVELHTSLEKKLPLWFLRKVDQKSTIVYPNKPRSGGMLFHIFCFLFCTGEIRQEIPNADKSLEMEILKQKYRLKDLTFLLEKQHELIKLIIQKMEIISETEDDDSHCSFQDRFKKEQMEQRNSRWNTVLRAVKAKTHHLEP
Sequence of Transient receptor potential cation channel subfamily A member 1 (Mus musculus), Q8BLA8 [C422S] (Q8BLA8 whole entry C422S): as the sequence (Q8BLA8 whole entry) above, with C422S counted along it

`O=C1NC(c2cccc([N+](=O)[O-])c2)=CCN1c1ccccc1O`: the result in assay [1] was Active.

As to `CCC=O`, in assay [2], the result was inactive. The EC50 is the concentration needed to bring the measured effect to its halfway point. Consider `C#CCN1C(=O)/C(=C/C(C)=O)c2ccccc21`, for which, in assay [3], the outcome was Active. Also, in [2], the EC50 came out at 0.1 µM. In the case of `C#CCN=C=S` [PROPARGYL ISOTHIOCYANATE], the result in [3] was Active. Moreover, the concentration for a half-maximal effect (EC50) in [2] was found to be 18.4 µM.

As for `C=CC=O` [ACROLEIN], the EC50 in assay [2] was 5 µM. That is a single-digit micromolar value.

Turning to `C=CCN=C=S`, the outcome in [4] and in assay [5] was Active.

Consider `CC/C=C/C=O` [PENTENAL], for which it took 5 µM to reach a half-maximal effect in [2] (EC50). Consider `C#CCCCCNC(=O)CI` [IODOACETAMIDE ALKYNE], for which the outcome in assay [3] was Active. This compound had a concentration for a half-maximal effect (EC50) in assay [2] of 134 µM. For the compound `O=C/C=C/c1ccccc1`, the result in [6], in [7] and in [8] was inactive. This compound displayed a concentration for a half-maximal effect (EC50) in assay [2] of 19 µM.

For `CC(=O)/C=C1/C(=O)N(C)c2ccccc21`, the outcome in assay [5], in [9] and in assay [10] was Active. The concentration for a half-maximal effect (EC50) in assay [2] was determined as 0.8 µM. As to `OC/C=C/c1ccccc1`, the outcome in [2] was inactive. Regarding `CS(=O)(=O)SCCN`, the outcome in [5] and in assay [11] was Active. This compound returned an EC50 in assay [2] of 1.58 µM. Regarding `CC(=O)CC1(O)C(=O)N(C)c2ccccc21` (stereo not drawn), in assay [2], the outcome was inactive. In the case of `NC(=O)CI` [IODOACETAMIDE], the outcome in assay [5] was Active. The midpoint of the response in assay [2], the EC50, lay at 357 µM. On to `O=C1CCC(=O)N1O`, for which, in assay [12], the result was inactive.
